System: nucleolin
Test: photoselective tagging of nucleolin using azo probe
Type: cell-based
Conditions: fixed U2OS cells
Protocol: Nucleolin is a protein found in the nucleolus of eukaryotic cells and involved in the synthesis of ribosomes. Azo-probe 1 was conjugated to a secondary antibody by using BCN-NHS (CAS# 1516551-46-4) as additional linker between Azo-probe 1 and secondary antibody. A sample of U2OS cells was grown on a glass-bottom chamber slide and fixed with 2.4% PFA. The antibody conjugated with Azo-probe 1 was applied to the sample stained with anti-nucleolin antibody. The sample was exposed to 780 nm two-photon irradiation (200mW, 200 µs/pixel) to photocrosslink the light activated warhead to the antibody and subsequently incubated with 1 M sodium dithionite at room temperature for over 16 h to remove non-crosslinked probes. Neutravidin conjugated to Alexa Fluor 647 dye was added and the sample assayed for the Alexa Fluor 647. Alexa Fluor 647 is a bright, far-red-fluorescent dye with excitation ideally suited for the 594 nm or 633 nm laser lines. Results are shown in the top panel of FIG. 12B. A close-up view is shown in the top right side of FIG. 12B. […] A side view is shown in the bottom right of FIG. 12B.

**Q.** For O=C(CCCC[C@@H]1SC[C@@H]2NC(=O)N[C@@H]21)N[C@@H](Cc1cn(CCOCCOCCOCCNC(=O)c2ccc(C(=O)c3ccccc3)cc2)nn1)C(=O)NCCc1ccc(O)c(/N=N/c2ccc(C(=O)ON3C(=O)CCC3=O)cc2)c1 [Azo-probe 1], which “Alexa Fluor 647 (Neutravidin) staining of tagged nucleolin” value (probe conjugated to secondary antibody via BCN-NHS, 780 nm two-photon irradiation (200mW, 200 µs/pixel), 1 M sodium dithionite over 16 h) is on record?
**A.** characteristic nucleoli shape is observed

**Q.** What about the “Alexa Fluor 647 (Neutravidin) staining of tagged nucleolin, control region” value (treated the same but not exposed to photoactivating light) of the same compound?
**A.** No significant staining was observed

From patent US20230176063A1, “PHOTOREACTIVE AND CLEAVABLE PROBES FOR TAGGING BIOMOLECULES” (Academia Sinica, priority 2020, published 2023)
